Assay results reported in ChEMBL document CHEMBL1128116, “Synthesis and resolution of -(aminomethyl)-4-chlorobenzeneethanesulfinic acid a potent gabaB receptor ligand” (Bioorg Med Chem Lett, 1995).

Experiments:
[1] = Inhibitory activity against Gamma-aminobutyric acid A (GABA-A) receptor; design: species or system Rattus norvegicus
Cavia porcellus = species: Cavia porcellus; assay: In vitro inhibition against electrical field stimulated neuronal cholinergic contractions of guinea pig trachea; assay type: functional

SMILES | IC50 [1] [µM] | IC30 (Cavia porcellus; Cavia porcellus, Trachea, read-out: IC30) [µM] | IC30 (Cavia porcellus) [µM]
NCC(CS(=O)O)c1ccc(Cl)cc1 (racemic) | > 100 | 22 | –
NCC(CS(=O)O)c1ccc(Cl)cc1 (single isomer, unassigned; (-)) | – | – | 13.9
